# Data reported in patent US20250241901A1, “ACTIVATION OF MNRR1 / CHCHD2 AS A THERAPEUTIC TARGET FOR MITOCHONDRIA ASSOCIATED DISORDERS” (Wayne State University, priority 2024, published 2025).
# Experiments:
# MNRR1 = MNRR1 immunofluorescence in MDAMB468 cells; format: cell-based, human; conditions: MDAMB468, 10 μM, 24 h
# Description: FIGS. 4A-4B: High throughput screen to identify MNRR1 activators. FIG. 4A: Campaign view representing compounds that activate MNRR1. Control levels are represented as a dotted line. Each compounds is shown as a small dot and nitazoxanide is highlighted as a large dot. FIG. 4B: MDAMB468 cells treated with Vehicle (DMSO) or nitazoxanide (10 μM) for 24 h were immunostained (MNRR1=orange, DAPI=blue) and imaged at 63λ using a confocal microscope. The scale bar represents 200 μm.
# Immunofluorescence: Cells plated on glass cover slips were fixed with 3.7% formaldehyde (prepared in 1× PBS) at room temperature for 15 min, followed by permeabilization with 0.15% Triton X-100 (prepared in distilled water) for 2 min, and then blocked with 5% bovine serum albumin (BSA) (prepared in 1× PBS, 0.1% TWEEN-20 (PBST)) for 1 h at room temperature. Cells were washed with PBST then incubated for 1 h at room temperature in primary antibody solution containing Coralite® 594 conjugated mouse monoclonal anti-CHCHD2 IgG (1:100, Proteintech, Cat. No. CL594-66302) prepared in PBST. Cells were washed 3 times with PBST for 5 min each and mounted with Vectashield vibrance with DAPI (Cat. #H-1800-10, Vector Labs, Newark, CA). […] Corrected total fluorescence for each field to determine MNRR1 content was calculated using FIJI (National Institutes of Health).
# TNF transcription = assay: TNF transcript levels in LPS-treated HTR8 cells (real-time PCR); format: cell-based, human
# Description: FIGS. 1A-1D. Nitazoxanide's anti-inflammatory effects are via transcriptional activation of MNRR1. (FIG. 1A) Results of a screen of ˜2400 FDA-approved drugs and natural compounds identified to transcriptionally activate (>1), inhibit (<1), or not affect (=1) MNRR1. Each circle represents one drug and the MNRR1 activator (nitazoxanide (N)) has been highlighted in green. (FIG. 1B) Equal numbers of HTR cells overexpressing the MNRR1-luciferase reporter were plated on a 96 well plate and treated with increasing amounts of nitazoxanide or vehicle (DMSO) for 24 h. EC50 was calculated using the activation of MNRR1 reporter relative to vehicle treated cells using the Quest Graph^TM EC50 Calculator. (FIG. 1C) TNF transcript levels were measured in human placental cells. Actin was used as a housekeeping gene for normalization. Abbreviations: WT, MNRR1-WT; MNRR1-KO, knockout of MNRR1; C, control (water); LPS, lipopolysaccharide; N, nitazoxanide; KO+WT-MNRR1, knockout cells +MNRR1−WT overexpression. n=4 biological replicates; significance: *, p-value<0.05; ns is non-significant. […]
# Real-time polymerase chain reaction: Total cellular RNA was extracted from mouse placental tissues or HTR8 cells by using a RNeasy Plus Mini Kit (Qiagen, Germantown, MD, USA), according to the manufacturer's instructions. […] Transcript levels were measured by real-time PCR by using SYBR green on an ABI 7500 system. […]
# [1] = in cells; cited from earlier work
# [2] = test system: mtDNA harboring the m.3243A>G mutation; assay: Heteroplasmy by Haelll digestion of mtDNA fragment, DW7 cells; format: cell-based, human; conditions: 10 μM, 144 h
# Description: FIGS. 7A-7E: MNRR1 activation by tizoxanide enhances mtDNA biogenesis and mitophagy to shift heteroplasmy in MELAS cells. FIG. 7A: Oxygen consumption measured from MELAS cybrid cells treated with vehicle (DMSO) or tizoxanide (10 μM) for 48 h (n=4 biological replicates, error bars represent SE). FIG. 7B: Haelll restriction enzyme digestion of a PCR-amplified fragment of mtDNA harboring the m.3243A>G mutation from DW7 cells treated with vehicle (DMSO) or tizoxanide (10 μM) for 144 h. […] FIG. 7C: Genes identified using qPCR of MELAS cybrid cells stably overexpressing EV or MNRR1. FIG. 7D: MtDNA levels are shown relative to nuclear DNA (nDNA) (GAPDH) (n=5 biological replicates, error bars represent SE). FIG. 7E: Equal amounts of MELAS cybrid cell lysates, treated with vehicle (DMSO) or tizoxanide (10 μM) for 48 h, were separated on an SDS-PAGE gel and probed for PGC1a, PINK1, LC3 A/B, MNRR1, and Tubulin. FIG. 7F: Equal numbers of MELAS cells were treated as in FIG. 7E, separated on an SDS-PAGE gel, and probed for phospho-ubiquitin (S65) levels. Tubulin was probed as a loading control. In all figures, * indicates p<0.05, ** indicates p<0.005.
# Restriction Enzyme Digestion: DNA was analyzed for the MELAS mutation as described previously. […]
# [3] = test system: MELAS patient fibroblasts; assay: Heteroplasmy in MELAS patient fibroblasts; format: cell-based, human; conditions: low heteroplasmy levels (<50%)
# Description: Restriction Enzyme Digestion: DNA was analyzed for the MELAS mutation as described previously. The A→G mutation creates a new Haelll site at position 3243 that can be amplified by PCR using primers corresponding to the light-strand positions 3116 to 3134 and to the heavy-strand positions 3353 to 3333. Equal amounts of the resulting products were digested with the restriction enzyme Haelll (New England Biolabs) and electrophoresed on a 2.5% agarose gel.
Structure (SMILES),MNRR1 level (MNRR1),"LPS-induced activation of TNF transcription (TNF transcription; HTR8 cells, MNRR1-WT)",anti-inflammatory benefit (TNF transcript) in MNRR1 knockout cells (TNF transcription; MNRR1 knockout cells),fraction metabolized to tizoxanide [1] [%],increase in proportion of WT mtDNA [2],shift of heteroplasmy [3]
"CC(=O)Oc1ccccc1C(=O)Nc1ncc([N+](=O)[O-])s1 [nitazoxanide, Nitazoxanide]",increase of MNRR1,reduced to control levels in an MNRR1-dependent fashion,no nitazoxanide-mediated benefit,> 97,–,–
"O=C(Nc1ncc([N+](=O)[O-])s1)c1ccccc1O [tizoxanide, Tizoxanide]",–,–,–,–,about 14%,do not show a shift of heteroplasmy
